Test results taken from patent publication US5384314A, “1α-fluoro-25-hydroxy-16-ene-23-yne-cholecalciferol” (Hoffmann-La Roche Inc., priority 1994, dated 1995).
Like-named read-outs stand apart in the source and are kept apart here.

What was measured:
[1] = tested on: human sebocytes (sebaceous cells); assay: inhibition of human sebocyte proliferation in vitro; assay type: cell-based; conditions: for IC50: read-out: ED50 (amount of compound necessary to inhibit the proliferation of the sebaceous cells by 50% as compared to a control)
Procedure: Sebaceous cells were isolated from adult human sebaceous glands as in J. Invest. Dermatol. 96:341-348 (1991) and cultured on a layer of growth-arrested 3T3 mouse fibroblasts.
The cells were cultured in Iscove's medium containing 10% fetal calf serum and 4 μg/ml dexamethasone.
Cells were plated in medium without 1α-fluoro-25-hydroxy-16-ene-23-yne-cholecalciferol. 24-48 hours after the initial plating, the cultures were given fresh medium containing the compound of the invention. Every 48 hours, the cultures were given fresh medium containing the compound of the invention. On the day of harvesting, the cultures were rinsed with a 0.03% EDTA in PBS, to remove only the 3T3 fibroblasts. The remaining sebocyyte colonies were incubated in 0.05% trypsin/0.03% EDTA to create a single cell suspension of sebocytes. The cells were diluted, mixed vigorously to maintain a single cell suspension, and counted in a hemocytometer.
The compounds tested were handled in the following manner. Stock solutions were made up as 10^-2 M solutions in degassed 100% ethanol and stored at -20° C. in the dark. Solutions were never used after storage of more than one month. During experimental use the solutions, which were aliquoted, were thawed once and used by diluting directly into complete medium to the appropriate concentration, at 10^-6, 10^-7, 10^-8 M and 10^-9. The compounds tested were
The results are summarized in table 1 as the amount of compound necessary to inhibit the proliferation of the sebaceous cells by 50% as compared to a control (ED50). The control was a culture treated with diluent only.

[2] = tested on: sebaceous glands in ears of the male Syrian hamster; conditions: cited from earlier work
[3] = tested on: hamster ear sebaceous gland; assay: hamster ear sebaceous gland model, oral study; assay type: in vivo, male Golden Syrian hamsters; conditions: 4 weeks
Procedure: The purpose of the test was to evaluate the effect of the inventive compound on the sebaceous glands of the hamster ear after oral administration of the compound. 200 μl of the compound of the invention dissolved in Tween 20/water/ethanol […] administered daily (5 days per week) by garage to male Golden Syrian hamsters. The animals were sacrificed at 4 weeks and the ears were processed for histological evaluation. One ear was fixed with 10% buffered formalin, processed for paraffin embedding, sectioned, and stained with hematoxyline and eosin (H&E). The area of the sebaceous glands was measured on histologically prepared cross-sections of the ear by image analysis using a Leitz TAS Plus system. Data is given as the average areas of 48 sebaceous glands per dose.

[4] = tested on: hamster ear sebaceous gland; assay: hamster ear sebaceous gland model, topical study; assay type: in vivo; conditions: 4 weeks, vs control
Procedure: The compound was evaluated for topical anti-acne activity in the hamster ear sebaceous gland model. For these studies, the compound was dissolved in acetone. Fifty (50) μl of the drug-containing solution was applied daily (5 days per week) to the dorsal side of the right ear of the hamster. Control hamsters received 50 μl of acetone. The animals were sacrificed after 4 weeks. The ears were removed and processed for histological evaluation. The ventral surface was separated from the rest of the ear. A 2 mm punch was removed 5 mm from the tip of the ear and stained in 0.1% Sudan Black B dissolved in 100% propylene glycol overnight. After destaining, the areas of the sebaceous glands were determined from the cross sections by image analysis using a Donsato Image Analysis System. The data was expressed as a percentage change from control animals for 80-120 sebaceous glands per dose.

Structure (SMILES)	IC50 ([1]; Homo sapiens)	size of sebaceous glands in ears (result in words) [2]	% Change in Hamster Ear Sebaceous Gland Size Cross Section Analysis ([3]; 0.05 μg/kg)	% Change in Hamster Ear Sebaceous Gland Size Cross Section Analysis ([3]; 0.5 μg/kg)	% Change in Hamster Ear Sebaceous Gland Size Cross Section Analysis ([3]; 5.0 μg/kg)	% Change in Hamster Ear Sebaceous Gland Size Cross Section Analysis ([3]; 50.0 μg/kg)	IC50 ([1]; human sebocytes in vitro, control treated with diluent only)	human sebocyte proliferation in vitro (result in words) ([1]; in vitro)	Change in Hamster Ear Sebaceous Gland Size Cross Section Analysis ([4]; 0.001 μg/animal, ns = not statistically significant from controls)	Change in Hamster Ear Sebaceous Gland Size Cross Section Analysis ([4]; 0.01 μg/animal, ns = not statistically significant from controls)	Change in Hamster Ear Sebaceous Gland Size Cross Section Analysis ([4]; 0.1 μg/animal, ns = not statistically significant from controls)	Change in Hamster Ear Sebaceous Gland Size Cross Section Analysis ([4]; 1.0 μg/animal, not marked ns)
C=C1/C(=C\C=C2/CCC[C@]3(C)[C@@H]([C@H](C)CCCC(C)(C)O)CC[C@@H]23)C[C@@H](O)C[C@@H]1O [1,25-dihydroxycholecalciferol, reference compound]	50 nM	reducing the size of sebaceous glands in ears of the male Syrian hamster	–	–	–	–	–	–	–	–	–	–
C=C1/C(=C\C=C2/CCC[C@]3(C)C([C@H](C)CC#CC(C)(C)O)=CC[C@@H]23)C[C@@H](O)C[C@@H]1F [1α-fluoro-25-hydroxy-16-ene-23-yne-cholecalciferol]	–	–	-28%	-28%	-34%	-35%	1 nM	inhibits human sebocyte proliferation in vitro	-3%	-18%	-28%	-40%
